Reference: paper PMC3303948 (Steroids, 2012)
Values joined by “and” are separate entries in the source; they are usually repeats but may differ in a detail not shown here. Identical values can stand only once. Blank lines part the entries; values can stand above or below the compound they belong to.

Tests used:
[1] = Plasma pharmacokinetics of 1,25; format: in vivo, nu/nu mice
[2] = Tumor; format: in vivo, nu/nu mice
[3] = Compartmental analysis of plasma and tumor 1,25
[4] = tested on: CYP24 mRNA; assay: CYP24 mRNA expression in H292 cells in vitro
[5] = 0.5 µg/kg once weekly; oncology setting; cited from earlier work
[6] = tested on: CYP24 mRNA; assay: CYP24 mRNA expression in H292 xenografts in vivo
[7] = tested on: CYP24; details: cited from earlier work
[8] = tested on: CYP27B1 mRNA; assay: CYP27B1 mRNA expression in H292 cells in vitro; format: cell-based, human; details: data not shown
[9] = ref personal communication, M. Petkovich; cited from earlier work
[10] = tested on: CYP24; details: in vitro; 50 nM CTA091; ref Zhang et al., manuscript under review; cited from earlier work
[11] = female, nu/nu, mouse, plasma, ip, 20 ug/kg
[12] = female, nu/nu, mouse, tumor (H292 xenograft), ip, 20 ug/kg
[13] = compartmental model, tumor volume fixed at 1 L/kg
[14] = rats, a similar dose (to 250 µg/kg)
[15] = 250 µg/kg CTA091 i.p. with 20 µg/kg 1,25(OH)2D3 versus 1,25(OH)2D3 alone
[16] = compartmental model, 250 µg/kg CTA091

Structure (SMILES): C=C1/C(=C\C=C2/CCC[C@]3(C)[C@@H]([C@H](C)CCCC(C)(C)O)CC[C@@H]23)C[C@@H](O)C[C@@H]1O [1,25(OH)2D3, 1,25-dihydroxyvitamin D3]
AUC(0-inf) [1, 11]: 69.1 ng·h/mL | AUC(0-t) [1, 11]: 67.4 ng·h/mL | CL/F [1, 11]: 4.82 mL/min/kg | Cmax [1, 11]: 21.6 ng/mL | Tmax [1, 11]: 0.25 h | Vd/F [1, 11]: 0.592 L/kg | half-life [1, 11]: 1.42 h | k el [1, 11]: 0.000136 s⁻¹ | Tmax ([1]; female, nu/nu, mouse, plasma, ip, 20 µg/kg): 0.25 to 0.5 h | Maximum tumor concentration of 1,25(OH)2D3 ([2]; H292 tumor, 20 µg/kg 1,25(OH)2D3 i.p.): 1.70 ng/mL | Tumor Cmax of 1,25(OH)2D3 ([2]; H292 tumor, 20 µg/kg 1,25(OH)2D3 i.p. alone or with 250 µg/kg CTA091): 1.7 ng/g and 1.70 ng/g | Tmax [2, 12]: 2 h | half-life [2, 12]: 1.95 h | k el [2, 12]: 9.86e-05 s⁻¹ | Peak tumor concentration of 1,25(OH)2D3 (molar) ([2]; given that 1 g of tumor has a volume of 1 mL, without or with CTA091): 3.8 nM | kct, transfer rate constant from the central to the tumor compartment, Estimate (%SE) [3, 13]: 0.454 (18) h^−1 | ktc, transfer rate constant from the tumor to the central compartment, Estimate (%SE) [3, 13]: 1.24 (22) h^−1 | CL/F [3, 11]: 4.85 mL/min/kg | Vd/F [3, 11]: 0.653 L/kg | half-life [3, 11]: 1.56 h | k el [3, 11]: 0.000124 s⁻¹ | k el ([3]; female, nu/nu, mouse, tumor (H292 xenograft), intraperitoneal, 20 µg/kg): 0.000292 s⁻¹ | half-life [3, 12]: 0.661 h | k el [3, 12]: 0.000289 s⁻¹ | Induction of CYP24 expression in H292 cells in vitro ([4]; 1 nM 1,25(OH)2D3 (Fig. 1A)): induced to express CYP24 | Safety of high-dose 1,25(OH)2D3 [5]: safely delivered | Increase in tumor CYP24 mRNA levels ([6]; single dose of 1,25(OH)2D3, 4 h post-treatment): approximately 4 fold | Increase in tumor CYP24 mRNA levels ([6]; single dose of 1,25(OH)2D3, after 8 h): ~15 fold

+/− CTA091 Ratio, plasma AUC0-inf of 1,25(OH)2D3 [1, 15]: 1.5 | +/− CTA091 Ratio, plasma AUC0–8h of 1,25(OH)2D3 [1, 15]: 1.4 | +/− CTA091 Ratio, plasma Cl/F of 1,25(OH)2D3 [1, 15]: 0.68 | +/− CTA091 Ratio, plasma Cmax of 1,25(OH)2D3 [1, 15]: 1.6 | +/− CTA091 Ratio, plasma Kel of 1,25(OH)2D3 [1, 15]: 0.86 | +/− CTA091 Ratio, plasma Tmax of 1,25(OH)2D3 [1, 15]: 2 | +/− CTA091 Ratio, plasma Vd/F of 1,25(OH)2D3 [1, 15]: 0.79 | +/− CTA091 Ratio, plasma t1/2 of 1,25(OH)2D3 [1, 15]: 1.2 | Increase in 1,25(OH)2D3 plasma levels (Cmax) by co-administered CTA091 ([1]; 250 µg/kg CTA091 with 20 µg/kg 1,25(OH)2D3 i.p.): 1.6 fold | Increase in 1,25(OH)2D3 plasma terminal half-life by CTA091 ([1]; 250 µg/kg CTA091 with 20 µg/kg 1,25(OH)2D3 i.p., non-compartmental): approximately 1.2 fold | +/− CTA091 Ratio, tumor/plasma AUC0–h of 1,25(OH)2D3 [2, 15]: 1.8 | +/− CTA091 Ratio, tumor/plasma Cmax of 1,25(OH)2D3 [2, 15]: 1.7 | Increase in 1,25(OH)2D3 tumor levels by co-administered CTA091 ([2]; 250 µg/kg CTA091 with 20 µg/kg 1,25(OH)2D3 i.p., H292 tumor): 2.6 fold | Decrease in plasma clearance of 1,25(OH)2D3 by CTA091 [3, 16]: 20% | Decrease in tumor clearance of 1,25(OH)2D3 by CTA091 [3, 16]: 46% | ktc/(ktc+ ktumor elim) ([3]; compartmental model, tumor clearance with versus without CTA091): 0.54
Structure (SMILES): C=C1/C(=C\C=C2/CCC[C@]3(C)[C@@H]([C@H](C)CCS(=N)(=O)c4ccccc4)CC[C@@H]23)C[C@@H](O)C[C@@H]1O (stereo partly drawn) [CTA091]
Increase in rat serum 1,25(OH)2D3 Cmax ([7]; rat, 500 µg/kg CTA091): 1.5 fold | Increase in rat serum 1,25(OH)2D3 exposure ([7]; rat, 500 µg/kg CTA091): 1.4 fold | Effect on endogenous 1,25(OH)2D3 levels [7, 14]: increased endogenous 1,25(OH)2D3 levels | Effect on serum PTH levels [7, 14]: decreased serum PTH levels | Effect on CYP27B1 mRNA expression [8]: no effect | Plasma clearance of CTA091 relative to 1,25(OH)2D3 [9]: cleared from plasma more rapidly than 1,25(OH)2D3 | Increase of the transcriptional induction of CYP24 by 1,25(OH)2D3 ([4]; H292 cells, CTA091 with 1,25(OH)2D3, data not shown): approximately 4 fold | Effect of CTA091 alone on CYP24 gene expression ([4]; H292 cells, data not shown): no effect | Effect on 1,25(OH)2D3-mediated transcription [10]: significantly increases 1,25(OH)2D3-mediated transcription | Inhibition of 1,25(OH)2D3 catabolism [10]: consistently and maximally inhibits 1,25(OH)2D3 catabolism
